Test results reported in ChEMBL document CHEMBL5506053, “Explorations of Agonist Selectivity for the α9* nAChR with Novel Substituted Carbamoyl/Amido/Heteroaryl Dialkylpiperazinium Salts and Their Therapeutic Implications in Pain and Inflammation” (J Med Chem, 2024).
One block for each molecule: values may come before it. Active and inactive are the calls of the source. No cut-off for these calls is given here.

Columns and labels:
[1] = biological target: T1, Neuronal acetylcholine receptor; alpha3/beta4 (Homo sapiens) (UniProt P30926+P32297); assay: Agonist activity at human alpha3beta4 nAChR expressed in xenopus laevis oocytes at 100 uM measured after 120 secs by two-electrode voltage-clamp electrophysiology method relative to control; assay type: cell-based; conditions: Oocyte, time 120.0 sec
[2] = system: Oocyte; assay: Agonist activity at mouse muscle alpha1beta1epsilondelta nAChR expressed in xenopus laevis oocytes at 30 uM measured after 120 secs by two-electrode voltage-clamp electrophysiology method relative to control; assay type: cell-based; conditions: time 120.0 sec
[3] = system: Oocyte; assay: (§1) Inhibition of acetylcholine induced response in mouse muscle alpha1beta1epsilondelta nAChR expressed in xenopus laevis oocytes assessed as fold change at 30 uM preincubated with 3 uM acetylcholine followed by compound administration for 12 sec and measured 181 sec post washout by two-electrode voltage-clamp electrophysiology method relative to acetylcholine alone; assay type: cell-based
[4] = biological target: T2, Neuronal acetylcholine receptor; alpha9/alpha10 (Homo sapiens) (UniProt Q9UGM1+Q9GZZ6); assay: (§2) Agonist activity at human alpha9alpha10 nAChR expressed as xenopus laevis oocytes assessed as increase in receptor desensitization by measuring fold change in maximum response (Imax) measured after 120 secs by two-electrode voltage-clamp electrophysiology method relative to acetylcholine; assay type: cell-based; conditions: Oocyte, filed as agonist, time 120.0 sec
[5] = biological target: T1, Neuronal acetylcholine receptor; alpha3/beta4 (Homo sapiens); assay: as §1, with “human alpha3beta4” for “mouse muscle alpha1beta1epsilondelta”, “100” for “30”; assay type: cell-based; conditions: Oocyte
[6] = biological target: T3, Neuronal acetylcholine receptor subunit alpha-7 (Homo sapiens, UniProt P36544); assay: Partial agonist activity at human alpha7 nAChR expressed as xenopus laevis oocytes assessed as increase in receptor desensitization by measuring fold change in maximum response (Imax) measured after 120 secs by two-electrode voltage-clamp electrophysiology method relative to acetylcholine; assay type: cell-based; conditions: Oocyte, filed as partial agonist, time 120.0 sec
[7] = biological target: T4, Neuronal acetylcholine receptor subunit alpha-9 (Homo sapiens, UniProt Q9UGM1); assay: Agonist activity at human alpha9 nAChR expressed as xenopus laevis oocytes assessed as increase in receptor desensitization by measuring fold change in maximum response (Imax) measured after 120 secs by two-electrode voltage-clamp electrophysiology method relative to acetylcholine; assay type: cell-based; conditions: Oocyte, filed as agonist, time 120.0 sec
[8] = biological target: T5, Neuronal acetylcholine receptor; alpha4/beta2 (Homo sapiens) (UniProt P17787+P43681); assay: as §1, with “human alpha4beta2” for “mouse muscle alpha1beta1epsilondelta”; assay type: cell-based; conditions: Oocyte
[9] = biological target: T5, Neuronal acetylcholine receptor; alpha4/beta2 (Homo sapiens); assay: Agonist activity at human alpha4beta2 nAChR expressed in xenopus laevis oocytes at 30 uM measured after 120 secs by two-electrode voltage-clamp electrophysiology method relative to control; assay type: cell-based; conditions: Oocyte, time 120.0 sec
[10] = biological target: T3, Neuronal acetylcholine receptor subunit alpha-7; assay: as §2, with “alpha7” for “alpha9alpha10”, “peak current” for “maximum”, “at 30 uM incubated for” for “(Imax) measured after”, “secs presence of PNU-120596” for “secs”; assay type: cell-based; conditions: Oocyte, filed as agonist, time 120.0 sec
[11] = human, caco-2, 2 h
[12] = biological target: T2, Neuronal acetylcholine receptor; alpha9/alpha10 (Homo sapiens); assay: Partial agonist activity at human alpha9alpha10 nAChR expressed as xenopus laevis oocytes assessed as increase in receptor desensitization by measuring fold change in maximum response (Imax) measured after 120 secs by two-electrode voltage-clamp electrophysiology method relative to acetylcholine; assay type: cell-based; conditions: Oocyte, filed as partial agonist, time 120.0 sec
[13] = Metabolic stability in pooled BALB/c mouse plasma assessed as half life at 1 uM measured after 0 to 120 mins by UPLC-MS/MS analysis; assay type: ADME, cell-free; conditions: time 0-120 min
[14] = biological target: T3, Neuronal acetylcholine receptor subunit alpha-7; assay: Agonist activity at human alpha7 nAChR expressed as xenopus laevis oocytes assessed as increase in receptor desensitization by measuring fold change in maximum response (Imax) measured after 120 secs by two-electrode voltage-clamp electrophysiology method relative to acetylcholine; assay type: cell-based; conditions: Oocyte, filed as agonist, time 120.0 sec
[15] = biological target: T3, Neuronal acetylcholine receptor subunit alpha-7; assay: Ratio for agonist activity at human alpha7 nAChR expressed as xenopus laevis oocytes assessed as increase in receptor desensitization by measuring fold change in peak current response to agonist activity at human alpha7 nAChR expressed as xenopus laevis oocytes assessed as increase in receptor desensitization by measuring fold change in peak current response in presence of PNU-120596; assay type: cell-based; conditions: Oocyte
[16] = system: THP-1; assay: Induction of IL-1beta release in LPS primed monocytic human THP-1 cells at 10 uM primed with LPS for 5 hrs followed by compound addition and further incubated for 40 mins by ELISA; assay type: functional, cell-based
[17] = system: THP-1; assay: Cytotoxicity against monocytic human THP-1 cells assessed as effect on lactate dehydrogenase activity in supernatant; assay type: toxicity, cell-based
[18] = Selectivity ratio for agonist activity at alpha7 nAChR (unknown origin) to agonist activity at alpha9 nAChR (unknown origin)
[19] = biological target: T4, Neuronal acetylcholine receptor subunit alpha-9; assay: Agonist activity at alpha9 nAChR (unknown origin)
[20] = biological target: T2, Neuronal acetylcholine receptor; alpha9/alpha10 (Homo sapiens); assay: Agonist activity at alpha9alpha10 nAChR (unknown origin) assessed as fold change in maximum response (Imax) relative to acetylcholine; assay type: protein-complex assay; conditions: filed as agonist
[21] = biological target: Neuronal acetylcholine receptor; alpha9/alpha10 (Homo sapiens, UniProt Q9GZZ6+Q9UGM1); assay: Agonist activity at alpha9alpha10 nAChR (unknown origin); assay type: protein-complex assay
[22] = biological target: T4, Neuronal acetylcholine receptor subunit alpha-9; assay: Partial agonist activity at human alpha9 nAChR expressed as xenopus laevis oocytes assessed as increase in receptor desensitization by measuring fold change in maximum response (Imax) measured after 120 secs by two-electrode voltage-clamp electrophysiology method relative to acetylcholine; assay type: cell-based; conditions: Oocyte, filed as partial agonist, time 120.0 sec
[23] = system: PBMC; assay: Inhibition of ATP-mediated IL-1beta release in LPS primed BzATP induced human PBMC cells at 100 uM primed with LPS for 3 hrs followed by BzATP and compound addition for 30 mins by ELISA; assay type: functional, cell-based
[24] = system: PBMC; assay: Inhibition of ATP-mediated IL-1beta release in LPS primed BzATP induced human PBMC cells at 100 fM primed with LPS for 3 hrs followed by BzATP and compound addition for 30 mins by ELISA; assay type: functional, cell-based
[25] = biological target: T3, Neuronal acetylcholine receptor subunit alpha-7; assay: Agonist activity at alpha7 nAChR (unknown origin)
[26] = cells; conditions: Homo sapiens, THP-1

T3 sequence (P36544 whole entry): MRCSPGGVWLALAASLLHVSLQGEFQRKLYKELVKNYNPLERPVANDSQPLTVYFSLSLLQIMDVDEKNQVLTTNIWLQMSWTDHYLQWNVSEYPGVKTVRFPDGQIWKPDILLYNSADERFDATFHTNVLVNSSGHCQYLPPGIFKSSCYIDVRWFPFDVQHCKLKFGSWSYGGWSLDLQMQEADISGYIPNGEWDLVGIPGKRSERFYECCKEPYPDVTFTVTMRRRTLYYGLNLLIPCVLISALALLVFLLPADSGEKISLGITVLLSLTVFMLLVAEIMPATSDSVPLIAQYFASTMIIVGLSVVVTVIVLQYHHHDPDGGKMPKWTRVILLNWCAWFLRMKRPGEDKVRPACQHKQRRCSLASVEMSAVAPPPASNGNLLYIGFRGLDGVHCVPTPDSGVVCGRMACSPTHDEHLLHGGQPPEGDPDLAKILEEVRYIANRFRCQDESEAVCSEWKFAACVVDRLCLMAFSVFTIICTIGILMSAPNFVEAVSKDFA
T4 sequence (Q9UGM1 whole entry): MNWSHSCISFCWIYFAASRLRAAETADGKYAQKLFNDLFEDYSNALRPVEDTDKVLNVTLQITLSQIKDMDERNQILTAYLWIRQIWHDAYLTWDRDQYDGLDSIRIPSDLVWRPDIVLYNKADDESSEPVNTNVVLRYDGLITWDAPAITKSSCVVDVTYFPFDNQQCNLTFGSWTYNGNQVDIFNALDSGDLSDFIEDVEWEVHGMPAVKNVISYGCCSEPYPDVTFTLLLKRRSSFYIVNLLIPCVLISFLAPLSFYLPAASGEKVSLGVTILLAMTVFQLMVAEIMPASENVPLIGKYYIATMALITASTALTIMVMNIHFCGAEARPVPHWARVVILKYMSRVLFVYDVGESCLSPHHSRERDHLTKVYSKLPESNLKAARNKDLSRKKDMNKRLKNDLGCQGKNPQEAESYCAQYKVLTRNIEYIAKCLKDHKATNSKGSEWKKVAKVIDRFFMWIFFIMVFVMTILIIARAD
Sequence of Neuronal acetylcholine receptor; alpha9/alpha10 (Q9UGM1 whole entry): as above
Sequence of Neuronal acetylcholine receptor; alpha9/alpha10 (Q9GZZ6 whole entry): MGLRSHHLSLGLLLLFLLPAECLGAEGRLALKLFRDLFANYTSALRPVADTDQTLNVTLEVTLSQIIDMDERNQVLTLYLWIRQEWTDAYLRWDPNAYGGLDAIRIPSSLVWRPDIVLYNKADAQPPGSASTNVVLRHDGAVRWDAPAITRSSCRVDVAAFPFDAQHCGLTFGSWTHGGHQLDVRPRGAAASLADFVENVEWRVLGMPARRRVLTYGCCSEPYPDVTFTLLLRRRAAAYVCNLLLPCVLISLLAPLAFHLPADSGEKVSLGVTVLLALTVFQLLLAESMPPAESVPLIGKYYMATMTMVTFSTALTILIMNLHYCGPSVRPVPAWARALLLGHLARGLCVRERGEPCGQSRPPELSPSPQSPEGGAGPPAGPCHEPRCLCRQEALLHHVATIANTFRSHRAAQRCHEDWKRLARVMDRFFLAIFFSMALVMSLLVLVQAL

Structure (SMILES): CC[N+]1(CC)CCN(c2ccc(-c3ncco3)cc2)CC1
Activity [1]: < 1%
Activity [2]: < 1%
fold change (FC) [3]: 0.353
fold change (FC) [4]: 0.83
fold change (FC) [5]: 0.507
fold change (FC) [6]: 0.12
fold change (FC) [7]: 1.29
fold change (FC) [8]: 0.823
Activity [9]: < 1%
fold change (FC) [10]: 0.05

Papp [11]: 20 10^-6 cm/s
Structure (SMILES): CC(C)NCC(O)COc1cccc2ccccc12 (stereo unspecified) [PROPRANOLOL]

Structure (SMILES): CC[N+]1(CC)CCN(c2ccc(-n3cccn3)cc2)CC1
Activity [1]: < 1%
Activity [2]: < 1%
fold change (FC) [3]: 0.59
fold change (FC) [5]: 0.736
fold change (FC) [6]: 0.088
fold change (FC) [12]: 0.59
fold change (FC) [7]: 1.01
fold change (FC) [8]: 0.913
Activity [9]: < 1%
fold change (FC) [10]: 0.17

t1/2 [13]: < 5 min
Structure (SMILES): CCN(CC)CCOC(=O)c1ccc(N)cc1 [PROCAINE]

Structure (SMILES): CCCNC(=O)c1ccc(N2CC[N+](CC)(CC)CC2)cc1
Activity [1]: < 1%
Activity [2]: < 1%
fold change (FC) [14]: 0.38
fold change (FC) [3]: 0.709
fold change (FC) [5]: 0.65
fold change (FC) [12]: 0.79
fold change (FC) [7]: 1.13
fold change (FC) [8]: 0.946
Activity [9]: < 1%
fold change (FC) [10]: 0.19

Structure (SMILES): CC[N+]1(CC)CCN(c2ccc(NC(=O)c3cccc(C)n3)cc2)CC1
Activity [1]: < 1%
Activity [2]: < 1%
fold change (FC) [14]: 0.14
Ratio [15]: 227
fold change (FC) [3]: 0.38
fold change (FC) [5]: 0.415
fold change (FC) [12]: 0.53
fold change (FC) [7]: 1.24
fold change (FC) [8]: 1.07
Activity [9]: < 1%
fold change (FC) [10]: 31.8

Structure (SMILES): CC(=O)OCC[N+](C)(C)C [ACETYLCHOLINE]
Activity [16]: inactive
Activity [17]: Non-Toxic

Papp [11]: 5.4 10^-6 cm/s
Structure (SMILES): C[C@H]1O[C@@H](O[C@H]2[C@@H](O)C[C@H](O[C@H]3[C@@H](O)C[C@H](O[C@H]4CC[C@@]5(C)[C@H](CC[C@@H]6[C@@H]5C[C@@H](O)[C@]5(C)[C@@H](C7=CC(=O)OC7)CC[C@]65O)C4)O[C@@H]3C)O[C@@H]2C)C[C@H](O)[C@@H]1O [DIGOXIN]

Structure (SMILES): CC[N+]1(CC)CCN(c2ccc(C(=O)Nc3ccccn3)cc2)CC1
Activity [1]: < 1%
Activity [2]: < 1%
fold change (FC) [14]: 0.46
fold change (FC) [3]: 0.506
fold change (FC) [4]: 0.94
fold change (FC) [5]: 0.789
fold change (FC) [7]: 1.18
fold change (FC) [8]: 0.697
Activity [9]: < 1%
fold change (FC) [10]: 0.12

Structure (SMILES): CC[N+]1(C)CCN(c2ccc(NC(C)=O)cc2)CC1
Activity [1]: < 1%
Activity [2]: < 1%
fold change (FC) [3]: 0.409
fold change (FC) [5]: 0.798
fold change (FC) [12]: 3.3
fold change (FC) [7]: 0.75
fold change (FC) [8]: 1.19
Activity [9]: < 1%
fold change (FC) [10]: 0.15

Structure (SMILES): CC[N+]1(CC)CCN(c2ccc(C(N)=O)cc2)CC1
fold change (FC) [4]: 1.19
fold change (FC) [6]: 0.34
Selectivity ratio [18]: 66
fold change (FC) [7]: 0.8
fold change (FC) [10]: 0.18

Structure (SMILES): CC[N+]1(CC)CCN(c2ccc(C#N)cc2)CC1
EC50 [19]: 0.368 µM
fold change (FC) [20]: 0.94
EC50 [21]: 2.57 µM

Structure (SMILES): CC[N+]1(CC)CCN(c2ccc(-n3cccc3)cc2)CC1
Activity [1]: < 1%
Activity [2]: < 1%
fold change (FC) [14]: 0.041
fold change (FC) [3]: 0.691
fold change (FC) [4]: 0.17
fold change (FC) [5]: 0.387
fold change (FC) [22]: 0.27
fold change (FC) [8]: 0.709
Activity [9]: < 1%
fold change (FC) [10]: 0.08

Structure (SMILES): Cc1cccc(NC(=O)c2ccc(N3CC[N+](C)(C)CC3)cc2)n1
Activity [1]: < 1%
Activity [2]: < 1%
fold change (FC) [14]: 0.57
fold change (FC) [3]: 0.709
fold change (FC) [4]: 0.89
fold change (FC) [5]: 0.838
fold change (FC) [22]: 0.51
fold change (FC) [8]: 0.912
Activity [9]: < 1%
fold change (FC) [10]: 0.16

Structure (SMILES): CC[N+]1(CC)CCN(c2ccc(C(=O)N3CCCC3)cc2)CC1
Activity [1]: < 1%
Activity [2]: < 1%
fold change (FC) [14]: 0.06
fold change (FC) [3]: 0.541
fold change (FC) [4]: 0.56
fold change (FC) [5]: 0.849
fold change (FC) [22]: 0.69
fold change (FC) [8]: 0.919
Activity [9]: < 1%
fold change (FC) [10]: 0.01

Structure (SMILES): CC[N+]1(CC)CCN(c2ccc(C(=O)Nc3cccc(C)c3)cc2)CC1
Activity [1]: < 1%
Activity [2]: < 1%
fold change (FC) [3]: 0.555
fold change (FC) [4]: 1.12
fold change (FC) [5]: 1.04
fold change (FC) [6]: 0.6
fold change (FC) [7]: 1.25
fold change (FC) [8]: 0.807
Activity [9]: < 1%
fold change (FC) [10]: 0.17

Structure (SMILES): CC[N+]1(CC)CCN(c2ccc(C(=O)Nc3cccc(C)n3)cc2)CC1.[I-]
inhibition [23]: inactive
inhibition [24]: Active
EC50 [25]: 6.4 µM
EC50 [19]: 0.66 µM
Activity [16]: inactive
Activity [17]: Non-Toxic
IC50 [26]: 14 µM
EC50 [21]: 0.98 µM
